Data as given in US10925856B2, “Methods and compositions involving bucindolol for the treatment of atrial fibrillation” (priority 2018, dated 2021).
Where two headings read alike, the source gives them in different places. Marks after values point to notes of the source that are not given here.

How the values were obtained:
[1] = Systolic blood pressure and heart rate by scheduled visit; assay type: in vivo, human
Excerpt: Block is defined as the first of any of the following: 1) 3rd degree heart block (complete heart block); 2) any 2nd degree heart block with the presence of symptoms attributable to, and temporally correlated with the occurrence of heart block which include any of the following: Near-fainting or fainting (syncope)/Dizziness; Weakness or Fatigue; Shortness of breath; Chest pain; or 3) 2nd or 3rd degree heart block requiring implantation of a permanent pacemaker (with or without defibrillator). • Data source: • CVEVENT and AE eCRF forms. • Overall incidence and severity of treatment-emergent AEs/SAEs over time during the Total Study Period. Also events associated with device implantation. […] The AEs of special interest will be tabulated according to the following characteristics. • Development of treatment-emergent neoplastic conditions. • Progression or worsening of pre-study neoplastic conditions. • Progression or worsening of treatment-emergent neoplastic conditions. • Data source: • AE, NEOPLHX and NEOPLAS eCRF forms. • Clinical Chemistry and Hematology. • Visit collection: screen, start of follow-up Week 0 (protocol versions 1 and 2), Week 4 (protocol versions 3 and 4), Week 12 (protocol versions 3 and 4), Week 24, every 24 weeks during extension, end of treatment and end of study. […] Randomization Visit measurement prior to first dose will serve as the baseline. Will be analyzed at Week 0, 4, 12 and 24 visits as well as end of treatment and end of study. • Change from baseline to each analysis visit will be calculated and analyzed with descriptive statistics. • The numbers and percentages of patients with QTc increase from baseline exceeding 60 ms at any time point during the study. • Data source: • ECG eCRF form. • Vital signs and weight (data source: VITALS eCRF form). • Measured at every in-clinic visit. Randomization Visit measurement prior to first dose will serve as the baseline. Will be analyzed at Week 0, 4, 12 and 24 visits as well as end of treatment and end of study. • Change from baseline to each analysis visit will be calculated and analyzed with descriptive statistics. • Data source: • VITALS eCRF form. • Proportion of patients attaining target study drug dose during the Drug Titration Period. Will be calculated for all patients, those receiving β-blocker therapy prior to randomization and those not previously receiving β-blocker therapy. • Data Sources: • VISREC and DRUGLOG eCRF forms.

[2] = target: human β1-adrenergic receptor (Homo sapiens, UniProt P08588); conditions: cited from earlier work
Sequence of human β1-adrenergic receptor (Homo sapiens, UniProt P08588) (P08588 whole entry): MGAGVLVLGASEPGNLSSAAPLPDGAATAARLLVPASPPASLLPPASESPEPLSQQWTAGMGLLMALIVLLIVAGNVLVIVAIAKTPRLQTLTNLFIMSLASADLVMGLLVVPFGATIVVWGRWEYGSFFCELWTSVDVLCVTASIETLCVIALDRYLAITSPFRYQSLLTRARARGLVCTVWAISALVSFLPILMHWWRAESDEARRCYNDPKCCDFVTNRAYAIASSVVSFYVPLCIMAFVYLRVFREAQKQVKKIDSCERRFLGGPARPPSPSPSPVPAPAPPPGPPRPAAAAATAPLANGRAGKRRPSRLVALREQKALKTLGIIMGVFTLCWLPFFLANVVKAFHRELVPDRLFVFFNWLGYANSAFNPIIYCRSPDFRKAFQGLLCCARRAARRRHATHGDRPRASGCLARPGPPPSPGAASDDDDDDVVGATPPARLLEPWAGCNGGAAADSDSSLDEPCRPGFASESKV

plasma norepinephrine = assay: Plasma norepinephrine (HPLC with electrochemical detection); conditions: for Norepinephrine, ΔWeek 12 Mean ± SEM / Norepinephrine, ΔWeek 12 Median / Norepinephrine, ΔWeek 24 Mean ± SEM / Norepinephrine, ΔWeek 24 Median: change from baseline
[3] = target: T1, human β1-adrenergic receptor (Homo sapiens, UniProt P08588, G389R); assay: Estimated β1-AR receptor occupancy from plasma concentration and KD; conditions: 12 weeks trough plasma concentration
T1 construct: from tissue; host or cells: notional myocardial receptor of GENETIC-AF patients; no receptor preparation was assayed
T1 sequence (P08588 whole entry G389R): as the sequence (P08588 whole entry) above, with G389R counted along it

[4] = tested on: advanced HFrEF patients (ADRB1 Arg389Gly / ADRA2C Ins322-325Del genotypes); conditions: cited from earlier work
[5] = in vivo; cited from earlier work
[6] = Europe excluding Hungary (n = 48)
[7] = BEST, {ADRA2C Del carrier and ADRB1 Arg389Arg}
[8] = BEST, {ADRA2C Del carriers and ADRB1 389Gly carriers}

## CC(C)(Cc1c[nH]c2ccccc12)NCC(O)COc1ccccc1C#N (stereo not shown) [bucindolol, 2-(3-(1-(1H-indol-3-yl)-2-methylpropan-2-ylamino)-2-hydroxypropoxy)benzonitrile]
[1]; Baseline
  Systolic Blood Pressure, Baseline Mean ± SEM: 124.7 ± 1.3 mmHg
[1]; Baseline, by ECG
  Heart Rate, Baseline Mean ± SEM: 76.5 ± 1.5 bpm
[1]; Week 4 Change from Baseline
  Systolic Blood Pressure, Mean ± SEM: −0.3 ± 1.5 mmHg
[1]; Week 4 Change from Baseline, by ECG
  Heart Rate, Mean ± SEM: 0.1 ± 1.6 bpm
[1]; Week 12 Change from Baseline
  Systolic Blood Pressure, Mean ± SEM: −0.5 ± 1.8 mmHg
[1]; Week 12 Change from Baseline, by ECG
  Heart Rate, Mean ± SEM: −1.5 ± 1.8 bpm
[1]; Week 24 Change from Baseline
  Systolic Blood Pressure, Mean ± SEM: −1.1 ± 1.5 mmHg
[1]; Week 24 Change from Baseline, by ECG
  Heart Rate, Mean ± SEM: 0.1 ± 2.3 bpm
[2]
  KD (KA in the occupancy formula), dissociation constant for human β1-ARs: 3.6 nM
Plasma norepinephrine; Canada
  Plasma norepinephrine, Week 4 Mean: 583 pg/mL
  Plasma norepinephrine, Week 4 Median: 551 pg/mL
  Plasma norepinephrine, change from baseline to Week 4, Mean ±SEM: -59 pg/mL
  Plasma norepinephrine, change from baseline to Week 4, Median: -1 pg/mL
Plasma norepinephrine; Canada (n = 59)
  Norepinephrine, Baseline Mean ± SD: 642 ± 341 pg/mL
  Norepinephrine, Baseline Median: 522 pg/mL
  Norepinephrine, Week 12 Mean ± SD: 528 ± 252 pg/mL
  Norepinephrine, Week 12 Median: 484 pg/mL
  Norepinephrine, Week 24 Mean ± SD: 623 ± 276 pg/mL
  Norepinephrine, Week 24 Median: 564 pg/mL
  Norepinephrine, ΔWeek 12 Mean ± SEM: -133 ± 48 pg/mL
  Norepinephrine, ΔWeek 12 Median: -100 pg/mL
  Norepinephrine, ΔWeek 24 Mean ± SEM: -38 ± 54 pg/mL
  Norepinephrine, ΔWeek 24 Median: -21 pg/mL
Plasma norepinephrine; Entire Cohort
  Change in NE at Week 4, median (Q1, Q3): −101 (−241, 43)* pg/ml
  Plasma norepinephrine, Week 4 Mean: 563 pg/mL
  Plasma norepinephrine, Week 4 Median: 500 pg/mL
  Plasma norepinephrine, change from baseline to Week 4, Mean ±SEM: -124 ± 26 pg/mL
  Plasma norepinephrine, change from baseline to Week 4, Median: -101 pg/mL
Plasma norepinephrine; Entire Cohort (n = 267)
  Norepinephrine, Baseline Mean ± SD: 682 ± 349 pg/mL
  Norepinephrine, Baseline Median: 607 pg/mL
  Norepinephrine, Week 12 Mean ± SD: 570 ± 275 pg/mL
  Norepinephrine, Week 12 Median: 520 pg/mL
  Norepinephrine, Week 24 Mean ± SD: 631 ± 329 pg/mL
  Norepinephrine, Week 24 Median: 545 pg/mL
  Norepinephrine, ΔWeek 12 Mean ± SEM: -118 ± 27 pg/mL
  Norepinephrine, ΔWeek 12 Median: -100 pg/mL
  Norepinephrine, ΔWeek 24 Mean ± SEM: -64 ± 31 pg/mL
  Norepinephrine, ΔWeek 24 Median: -47 pg/mL
Plasma norepinephrine; Entire Cohort, listed as Buc
  Plasma norepinephrine, change from baseline to Week 4, Mean ±SEM: -124 pg/mL
Plasma norepinephrine; Europe excluding Hungary
  Plasma norepinephrine, Week 4 Mean: 604 pg/mL
  Plasma norepinephrine, Week 4 Median: 540 pg/mL
  Plasma norepinephrine, change from baseline to Week 4, Mean ±SEM: -126 pg/mL
  Plasma norepinephrine, change from baseline to Week 4, Median: -129 pg/mL
Plasma norepinephrine; [6]
  Norepinephrine, Baseline Mean ± SD: 753 ± 375 pg/mL
  Norepinephrine, Baseline Median: 691 pg/mL
  Norepinephrine, Week 12 Mean ± SD: 683 ± 318 pg/mL
  Norepinephrine, Week 12 Median: 611 pg/mL
  Norepinephrine, Week 24 Mean ± SD: 798 ± 459 pg/mL
  Norepinephrine, Week 24 Median: 729 pg/mL
  Norepinephrine, ΔWeek 12 Mean ± SEM: -34 ± 51 pg/mL
  Norepinephrine, ΔWeek 12 Median: -55 pg/mL
  Norepinephrine, ΔWeek 24 Mean ± SEM: 56 ± 152 pg/mL
  Norepinephrine, ΔWeek 24 Median: -82 pg/mL
Plasma norepinephrine; Hungary
  Plasma norepinephrine, Week 4 Mean: 576 pg/mL
  Plasma norepinephrine, Week 4 Median: 525 pg/mL
  Plasma norepinephrine, change from baseline to Week 4, Mean ±SEM: -208 pg/mL
  Plasma norepinephrine, change from baseline to Week 4, Median: −213* pg/ml
Plasma norepinephrine; Hungary (n = 33)
  Norepinephrine, Baseline Mean ± SD: 767 ± 270 pg/mL
  Norepinephrine, Baseline Median: 792 pg/mL
  Norepinephrine, Week 12 Mean ± SD: 638 ± 254 pg/mL
  Norepinephrine, Week 12 Median: 690 pg/mL
  Norepinephrine, Week 24 Mean ± SD: 711 ± 267 pg/mL
  Norepinephrine, Week 24 Median: 736 pg/mL
  Norepinephrine, ΔWeek 12 Mean ± SEM: -172 ± 63 pg/mL
  Norepinephrine, ΔWeek 12 Median: -171 pg/mL
  Norepinephrine, ΔWeek 24 Mean ± SEM: -132 ± 296 pg/mL
  Norepinephrine, ΔWeek 24 Median: -193 pg/mL
Plasma norepinephrine; U.S.
  Plasma norepinephrine, Week 4 Mean: 529 pg/mL
  Plasma norepinephrine, Week 4 Median: 473 pg/mL
  Plasma norepinephrine, change from baseline to Week 4, Mean ±SEM: -136 pg/mL
  Plasma norepinephrine, change from baseline to Week 4, Median: -101 pg/mL
Plasma norepinephrine; U.S. (n = 127)
  Norepinephrine, Baseline Mean ± SD: 650 ± 362 pg/mL
  Norepinephrine, Baseline Median: 598 pg/mL
  Norepinephrine, Week 12 Mean ± SD: 529 ± 267 pg/mL
  Norepinephrine, Week 12 Median: 466 pg/mL
  Norepinephrine, Week 24 Mean ± SD: 585 ± 336 pg/mL
  Norepinephrine, Week 24 Median: 498 pg/mL
  Norepinephrine, ΔWeek 12 Mean ± SEM: -128 ± 49 pg/mL
  Norepinephrine, ΔWeek 12 Median: -86 pg/mL
  Norepinephrine, ΔWeek 24 Mean ± SEM: -86 ± 40 pg/mL
  Norepinephrine, ΔWeek 24 Median: -46 pg/mL
Plasma norepinephrine; Week 4, Hungary
  Degree of reduction in NE by median values: 213 pg/mL
Plasma norepinephrine; Week 4, U.S.
  Degree of reduction in NE by median values: 101 pg/mL
Plasma norepinephrine; Week 4, rest of Europe
  Degree of reduction in NE by median values: 121 pg/mL
Plasma norepinephrine; Week 12, Canada
  Reduction in NE: 100 pg/mL
Plasma norepinephrine; Week 24, Canada
  Reduction in NE: 21 pg/mL
Plasma norepinephrine; Week 24, Hungary
  Reduction in NE: 193 pg/mL
Plasma norepinephrine; Week 24, U.S.
  Reduction in NE: 46 pg/mL
Plasma norepinephrine; week 4, entire cohort
  Degree of reduction in NE by median values: 101 pg/mL
Plasma norepinephrine; week 24, entire cohort
  Reduction in NE: 47 pg/mL
[3]; CYP2D6 EMs
  β1-AR receptor occupancy: 85.2%
[3]; CYP2D6 IMs
  β1-AR receptor occupancy: 94.6%
[3]; CYP2D6 PMs
  β1-AR receptor occupancy: 99.0%
[4]; BEST trial at 12 weeks
  Reduction in NE: 75 pg/mL
[4]; BEST, ADRA2C Del genotypes
  Decrease in NE (sympatholysis): 153 pg/mL
[4]; BEST, ADRA2C Ins homozygotes
  Decrease in NE (sympatholysis): 50 pg/mL
[4]; BEST, ADRB1 Arg389Arg subset in permanent AF
  Effect sizes, time to ACM or HF hospitalization and CV mortality or CV hospitalization: exceeding 70%
[4]; BEST, ADRB1 Arg389Arg, sinus rhythm at baseline
  Reduction in the development (risk) of AF vs. placebo: 74%
[4]; BEST, {ADRA2C Del carrier and ADRB1 Arg389Arg} combination genotype
  Reduction in NE: 120 pg/mL
[4]; [7]
  Hazard ratio, ACM, bucindolol vs. placebo: 0.50
  Hazard ratio, CVM, bucindolol vs. placebo: 0.40
  Hazard ratio, heart failure hospitalization burden, bucindolol vs. placebo: 0.60
[4]; [8]
  Hazard ratio, ACM, bucindolol vs. placebo: 1.04
  Hazard ratio, CVM, bucindolol vs. placebo: 1.11
  Hazard ratio, heart failure hospitalization burden, bucindolol vs. placebo: 1.19
[5]
  Bioavailability: approximately 30%
